Results as given in the C3SDB collision cross section collection.
Where “and” joins values, the source holds several entries; their conditions need not be identical. Equal entries are not always repeated. Structures can show the parent of a compound that is named as a salt.

Details: instrument: DT, single field, calibrated with Agilent tune mix (Agilent)

N[C@@H](CSS(=O)(=O)O)C(=O)O [Cysteine-S-sulfate]
collision cross section (N2) ([M+H]+): 144.2 Å²
collision cross section (N2) ([M+Na-2H]-): 133.29 Å²

Nc1ccn([C@@H]2O[C@H](COP(=O)(O)OP(=O)(O)O)[C@@H](O)[C@H]2O)c(=O)n1 [Cytidine 5'-diphosphate]
collision cross section (N2) ([M-H]-): 171.31 Å²

N[C@H](CC(=O)O)C(=O)O [D-Aspartic acid]
collision cross section (N2) ([M-H]-): 116.91 Å²

O=C(CO)[C@@H](O)[C@H](O)[C@H](O)COP(=O)(O)O [D-Fructose-6-phosphate]
collision cross section (N2) ([M+Na]+): 154.2 Å²

OC1OC[C@@H](O)[C@@H](O)[C@H]1O (stereo partly drawn) [D-Ribose]
collision cross section (N2) ([M+Na]+): 135.3 Å²

OC[C@@H](O)[C@@H](O)[C@H](O)[C@@H](O)CO [D-Sorbitol]
collision cross section (N2) ([M+Na]+): 142.5 Å²
collision cross section (N2) ([M-H]-): 129.64 Å²

O=C(O)[C@H]1OC(O)[C@H](O)[C@@H](O)[C@H]1O (stereo partly drawn) [D-galacturonic acid]
collision cross section (N2) ([M+Na]+): 143.7 Å²
collision cross section (N2) ([M-H]-): 128.3 Å²

O=C([O-])[C@H](O)[C@@H](O)[C@H](O)[C@H](O)CO [D-gluconate]
collision cross section (N2) ([M+Na]+): 145.8 Å²

CCCCCCCCCC(=O)SCCNC(=O)CCNC(=O)[C@H](O)C(C)(C)COP(=O)(O)OP(=O)(O)OC[C@H]1O[C@@H](n2cnc3c(N)ncnc32)[C@H](O)[C@@H]1OP(=O)(O)O [Decanoyl-CoA]
collision cross section (N2) ([M+H]+): 277 Å²
collision cross section (N2) ([M-H]-): 276 Å²

Nc1nc(=O)c2ncn([C@H]3C[C@H](O)[C@@H](CO)O3)c2[nH]1 [Deoxyguanosine]
collision cross section (N2) ([M+Na]+): 171.7 Å²
collision cross section (N2) ([M-H]-): 156.76 Å²

Cc1cn([C@H]2C[C@H](O)[C@@H](COP(=O)(O)OP(=O)(O)O)O2)c(=O)[nH]c1=O [Deoxythymidine 5'-diphosphate]
collision cross section (N2) ([M+Na]+): 177.6 Å²
collision cross section (N2) ([M-H]-): 172.11 Å²

O=c1ccn([C@H]2C[C@H](O)[C@@H](COP(=O)(O)O)O2)c(=O)[nH]1 [Deoxyuridine monophosphate]
collision cross section (N2) ([M+Na]+): 167.5 Å²
collision cross section (N2) ([M-H]-): 156 Å²

C[C@@H]1NC(=O)N[C@@H]1CCCCCC(=O)O [Dethiobiotin]
collision cross section (N2) ([M+2Na-3H]-): 162.06 Å²
collision cross section (N2) ([M+H]+): 144.1 Å²

NC(CCCC(N)C(=O)O)C(=O)O (centres undefined) [Diaminopimelic acid]
collision cross section (N2) ([M+H]+): 140.8 Å²
collision cross section (N2) ([M-H]-): 134.28 Å²

CC1CNC(=O)NC1=O (centres undefined) [Dihydrothymine]
collision cross section (N2) ([M+H]+): 131.2 Å²

O=C(CO)COP(=O)(O)O [Dihydroxyacetone phosphate]
collision cross section (N2) ([M+Na]+): 146.7 Å²

CCCCCCCCCCCC(=O)O [Dodecanoic acid]
collision cross section (N2) ([M-H]-): 152.58 Å²

O=C(O)CN(CCN(CC(=O)O)CC(=O)O)CC(=O)O [EDTA]
collision cross section (N2) ([M+H]+): 159.6 Å²
collision cross section (N2) ([M-H]-): 151.17 Å²

C=C1CC[C@H](O)C/C1=C/C=C1\CCC[C@]2(C)[C@@H]([C@H](C)/C=C/[C@H](C)C(C)C)CC[C@@H]12 [Ergocalciferol]
collision cross section (N2) ([M+H]+): 202.4 Å² and 203.2 Å²

C[C@]12CC[C@@H]3c4ccc(O[C@@H]5O[C@H](C(=O)O)[C@@H](O)[C@H](O)[C@H]5O)cc4CC[C@H]3[C@@H]1CCC2=O [Estrone-3-glucuronide]
collision cross section (N2) ([M-H]-): 215.74 Å²

CCO[C@@H]1O[C@H](C(=O)O)[C@@H](O)[C@H](O)[C@H]1O [Ethyl glucuronide]
collision cross section (N2) ([M-H]-): 143.97 Å²

CC(C)=CCC/C(C)=C/CC/C(C)=C/COP(=O)(O)OP(=O)(O)O [Farnesyl pyrophosphate]
collision cross section (N2) ([M-H]-): 183.85 Å²

Cc1cc2nc3c(=O)[nH]c(=O)nc-3n(C[C@H](O)[C@H](O)[C@H](O)COP(=O)(O)O)c2cc1C [Flavin mononucleotide]
collision cross section (N2) ([M+H]+): 199.1 Å²
collision cross section (N2) ([M-H]-): 194.92 Å²

O=P(O)(O)OC[C@H]1O[C@@](O)(COP(=O)(O)O)[C@@H](O)[C@@H]1O [Fructose 1,6-bisphosphate]
collision cross section (N2) ([M+Na]+): 168.2 Å²

CCCCC/C=C\C/C=C\C/C=C\CCCCC(=O)O [Gamma-Linolenic acid]
collision cross section (N2) ([M-H]-): 172.84 Å²

O=P(O)(O)OC[C@H]1OC(O)[C@H](O)[C@@H](O)[C@@H]1O (some centres undefined) [Glucose 6-phosphate]
collision cross section (N2) ([M+Na]+): 158.1 Å²

O=P(O)(O)OCC(O)CO (centres undefined) [Glycerol 3-phosphate]
collision cross section (N2) ([M-H]-): 124.86 Å²

C[C@H](CCC(=O)NCC(=O)O)[C@H]1CC[C@H]2[C@@H]3[C@H](O)C[C@@H]4C[C@H](O)CC[C@]4(C)[C@H]3C[C@H](O)[C@]12C [Glycocholic acid]
collision cross section (N2) ([M+Na]+): 202 Å²
collision cross section (N2) ([M-H]-): 200.58 Å²

C[C@H](CCC(=O)NCC(=O)O)[C@H]1CC[C@H]2[C@@H]3CC[C@@H]4C[C@H](O)CC[C@]4(C)[C@H]3CC[C@]12C [Glycolithocholic acid]
collision cross section (N2) ([M+H]+): 200.9 Å²
collision cross section (N2) ([M+Na-2H]-): 205.49 Å²

COc1ccc2c(c1)[nH]c1c(C)nccc12 [Harmine]
collision cross section (N2) ([M+H]+): 146 Å²
collision cross section (N2) ([M-H]-): 145.28 Å²

O=C(O)CNC(=O)c1ccccc1 [Hippuric acid]
collision cross section (N2) ([M-H]-): 139.72 Å²

COc1cc(CC(=O)O)ccc1O [Homovanillic acid]
collision cross section (N2) ([M-H]-): 134.15 Å²

C[C@]12CCC(=O)C=C1CC[C@@H]1[C@@H]2[C@@H](O)C[C@@]2(C)[C@H]1CC[C@]2(O)C(=O)CO [Hydrocortisone (Cortisol)]
collision cross section (N2) ([M+H]+): 189.1 Å²

O=C(O)C(O)Cc1ccc(O)cc1 (centres undefined) [Hydroxyphenyllactic acid]
collision cross section (N2) ([M-H]-): 139.4 Å²

O=C(O)Cc1cnc[nH]1 [Imidazoleacetic acid]
collision cross section (N2) ([M+H]+): 123.1 Å²

O=C(O)c1c[nH]c2ccccc12 [Indole-3-carboxylic acid]
collision cross section (N2) ([M+H]+): 132.4 Å²
collision cross section (N2) ([M-H]-): 124.5 Å²

c1ccc2[nH]ccc2c1 [Indole]
collision cross section (N2) ([M+H]+): 121 Å²
collision cross section (N2) ([M-H]-): 117.08 Å²

O=C(O)Cc1c[nH]c2ccccc12 [Indoleacetic acid]
collision cross section (N2) ([M+H]+): 136.2 Å²

O=C(O)C(O)Cc1c[nH]c2ccccc12 (centres undefined) [Indolelactic acid]
collision cross section (N2) ([M+H]+): 143.8 Å²
collision cross section (N2) ([M-H]-): 146.51 Å²

O=S(=O)(O)Oc1c[nH]c2ccccc12 [Indoxyl sulfate]
collision cross section (N2) ([M-H]-): 140.6 Å²

O=c1nc[nH]c2c1ncn2[C@@H]1O[C@H](COP(=O)(O)OP(=O)(O)O)[C@@H](O)[C@H]1O [Inosine diphosphate]
collision cross section (N2) ([M+H]+): 185.6 Å²
collision cross section (N2) ([M-H]-): 176.13 Å²

O=c1nc[nH]c2c1ncn2[C@@H]1O[C@H](COP(=O)(O)OP(=O)(O)OP(=O)(O)O)[C@@H](O)[C@H]1O [Inosine triphosphate]
collision cross section (N2) ([M-H]-): 187.3 Å²

CC(C)C(=O)SCCNC(=O)CCNC(=O)[C@H](O)C(C)(C)COP(=O)(O)OP(=O)(O)OC[C@H]1O[C@@H](n2cnc3c(N)ncnc32)[C@H](O)[C@@H]1OP(=O)(O)O [Isobutyryl-CoA]
collision cross section (N2) ([M+H]+): 252 Å²
collision cross section (N2) ([M-H]-): 254.31 Å²

CC(C)C(=O)NCC(=O)O [Isobutyrylglycine]
collision cross section (N2) ([M-H]-): 132.07 Å²

CC(C)CCC(=O)O [Isocaproic acid]
collision cross section (N2) ([M-H]-): 127.48 Å²

CC(C)CC(=O)NCC(=O)O [Isovalerylglycine]
collision cross section (N2) ([M+H]+): 155.1 Å²
collision cross section (N2) ([M-H]-): 138.14 Å²

O=C(O)c1cc(=O)c2ccccc2[nH]1 [Kynurenic acid]
collision cross section (N2) ([M+H]+): 137 Å²
collision cross section (N2) ([M+Na-2H]-): 149.51 Å²

O=C1O[C@H]([C@@H](O)CO)C(O)=C1O [L-Ascorbic acid]
collision cross section (N2) ([M+H]+): 138.6 Å²

C[N+](C)(C)C[C@H](O)CC(=O)[O-] [L-Carnitine]
collision cross section (N2) ([M+H]+): 133.1 Å²

N[C@@H](CS(=O)(=O)O)C(=O)O [L-Cysteic acid]
collision cross section (N2) ([M-H]-): 120.55 Å²

OC[C@H](O)[C@@H](O)[C@H](O)[C@@H](O)CO [L-Iditol]
collision cross section (N2) ([M+Na]+): 143 Å²
collision cross section (N2) ([M-H]-): 129.61 Å²

CCCCCCCCCCCCCCCC(=O)O[C@H](CC(=O)[O-])C[N+](C)(C)C [L-Palmitoylcarnitine]
collision cross section (N2) ([M+H]+): 214 Å²
collision cross section (N2) ([M-H]-): 204.49 Å²

CC(C)C[C@H](N)C(=O)N1CCC[C@H]1C(=O)O [L-leucyl-L-proline]
collision cross section (N2) ([M+H-H2O]+): 149.5 Å²

CC(C)=CCC[C@@H](C)[C@H]1CC[C@@]2(C)C3=C(CC[C@]12C)[C@@]1(C)CC[C@H](O)C(C)(C)[C@@H]1CC3 [Lanosterol]
collision cross section (N2) ([M+H-H2O]+): 207.3 Å²

C[C@H](CCC(=O)O)[C@H]1CC[C@H]2[C@@H]3CC[C@@H]4C[C@H](O)CC[C@]4(C)[C@H]3CC[C@]12C [Lithocholic acid]
collision cross section (N2) ([M+H-H2O]+): 193.4 Å²
collision cross section (N2) ([M-H]-): 199.95 Å²

O=P(O)(O)OC1C(OP(=O)(O)O)C(OP(=O)(O)O)C(OP(=O)(O)O)C(OP(=O)(O)O)C1OP(=O)(O)O (centres undefined) [Myo-inositol hexakisphosphate]
collision cross section (N2) ([M-H]-): 193.29 Å²

CCCCCCCCCCCCCC(=O)O [Myristic acid]
collision cross section (N2) ([M-H]-): 159.21 Å²

CC(=O)N[C@@H](CCCN)C(=O)O [N2-Acetyl-L-ornithine]
collision cross section (N2) ([M+H]+): 136.9 Å²

CNc1ncnc2c1ncn2[C@@H]1O[C@H](CO)[C@@H](O)[C@H]1O [N6-methyladenosine]
collision cross section (N2) ([M+Na]+): 170.4 Å²
collision cross section (N2) ([M-H]-): 159.67 Å²

CC(=O)NCCCCNCCCN [N8-Acetylspermidine]
collision cross section (N2) ([M+H]+): 142.7 Å²
collision cross section (N2) ([M-H]-): 146.34 Å²

CC(=O)N[C@H]1[C@H](O[C@H]2[C@H](O)[C@@H](NC(C)=O)C(O)O[C@@H]2CO)O[C@H](CO)[C@@H](O)[C@@H]1O (some centres undefined) [N,N'-Diacetylchitobiose]
collision cross section (N2) ([M+H]+): 192.9 Å²

NC(=NCCCC(N)C(=O)O)NO (centres undefined) [N-(omega)-Hydroxyarginine]
collision cross section (N2) ([M+H]+): 139 Å²
collision cross section (N2) ([M-H]-): 138.2 Å²
